From the supplement of paper PMC10307832

Tests used:
Experiment in all cases: relative viability (nuclei count vs DMSO), 5 days (fraction); higher = more cells survive
BX 795 + Trametinib = compound: O=C(NCCCNc1nc(Nc2cccc(NC(=O)N3CCCC3)c2)ncc1I)c1cccs1 [BX 795] + CC(=O)Nc1cccc(-n2c(=O)n(C3CC3)c(=O)c3c(Nc4ccc(I)cc4F)n(C)c(=O)c(C)c32)c1 [Trametinib] (partner 0.02 µM)
In short: (§1)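 Relative viability was taken as the ratio of nuclei in treated wells to nuclei in vehicle wells. Lung cancer cell lines in 1536-well plates received compounds by pin tool one day after seeding, either one drug alone or a fixed anchor-drug dose plus five library-drug doses (not always all listed) in √10 steps. Nuclei were counted on 4× images after 5 days of treatment, and values are medians of duplicate plates.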

BX 795 + Luminespib = compound: O=C(NCCCNc1nc(Nc2cccc(NC(=O)N3CCCC3)c2)ncc1I)c1cccs1 [BX 795] + CCNC(=O)c1noc(-c2cc(C(C)C)c(O)cc2O)c1-c1ccc(CN2CCOCC2)cc1 [Luminespib] (partner 0.01 µM)
In short: as §1

BX 795 + Pictilisib = compound: O=C(NCCCNc1nc(Nc2cccc(NC(=O)N3CCCC3)c2)ncc1I)c1cccs1 [BX 795] + CS(=O)(=O)N1CCN(Cc2cc3nc(-c4cccc5[nH]ncc45)nc(N4CCOCC4)c3s2)CC1 [Pictilisib] (partner 1 µM)
In short: as §1

BX 795 + Crizotinib = compound: O=C(NCCCNc1nc(Nc2cccc(NC(=O)N3CCCC3)c2)ncc1I)c1cccs1 [BX 795] + C[C@@H](Oc1cc(-c2cnn(C3CCNCC3)c2)cnc1N)c1c(Cl)ccc(F)c1Cl [Crizotinib] (partner 1 µM)
In short: as §1

BX 795 + Navitoclax = compound: O=C(NCCCNc1nc(Nc2cccc(NC(=O)N3CCCC3)c2)ncc1I)c1cccs1 [BX 795] + CC1(C)CCC(c2ccc(Cl)cc2)=C(CN2CCN(c3ccc(C(=O)NS(=O)(=O)c4ccc(N[C@H](CCN5CCOCC5)CSc5ccccc5)c(S(=O)(=O)C(F)(F)F)c4)cc3)CC2)C1 [Navitoclax] (partner 0.5 µM)
In short: as §1

| Cell Line | relative viability (BX 795 + Trametinib; first compound 0.04 µM) | relative viability (BX 795 + Trametinib; first compound 0.1265 µM) | relative viability (BX 795 + Trametinib; first compound 0.4 µM) | relative viability (BX 795 + Trametinib; first compound 1.265 µM) | relative viability (BX 795 + Luminespib; first compound 0.04 µM) | relative viability (BX 795 + Luminespib; first compound 0.1265 µM) | relative viability (BX 795 + Luminespib; first compound 0.4 µM) | relative viability (BX 795 + Luminespib; first compound 1.265 µM) | relative viability (BX 795 + Pictilisib; first compound 0.04 µM) | relative viability (BX 795 + Pictilisib; first compound 0.1265 µM) | relative viability (BX 795 + Pictilisib; first compound 0.4 µM) | relative viability (BX 795 + Pictilisib; first compound 1.265 µM) | relative viability (BX 795 + Crizotinib; first compound 0.04 µM) | relative viability (BX 795 + Crizotinib; first compound 0.1265 µM) | relative viability (BX 795 + Crizotinib; first compound 0.4 µM) | relative viability (BX 795 + Crizotinib; first compound 1.265 µM) | relative viability (BX 795 + Navitoclax; first compound 0.04 µM) | relative viability (BX 795 + Navitoclax; first compound 0.1265 µM) | relative viability (BX 795 + Navitoclax; first compound 0.4 µM) | relative viability (BX 795 + Navitoclax; first compound 1.265 µM) |
| --- | --- | --- | --- | --- | --- | --- | --- | --- | --- | --- | --- | --- | --- | --- | --- | --- | --- | --- | --- | --- |
| LOU-NH91 | 0.724 | 0.788 | 0.763 | 0.734 | 0.372 | 0.3 | 0.303 | 0.307 | 0.509 | 0.507 | 0.541 | 0.5 | 0.768 | 0.721 | 0.715 | 0.796 | 0.686 | 0.735 | 0.594 | 0.686 |
| LU99A | 0.558 | 0.484 | 0.41 | 0.278 | 0.288 | 0.278 | 0.226 | 0.294 | 0.384 | 0.317 | 0.329 | 0.252 | 0.646 | 0.593 | 0.455 | 0.361 | 1.03 | 0.755 | 0.821 | 0.498 |
| LXF-289 | 0.523 | 0.67 | 0.725 | 0.631 | 0.707 | 0.693 | 0.828 | 0.51 | 0.844 | 0.77 | 0.879 | 0.649 | 0.86 | 0.82 | 0.778 | 0.47 | 0.971 | 0.926 | 0.975 | 0.628 |
| NCI-H358 | 0.158 | 0.124 | 0.111 | 0.114 | 0.471 | 0.325 | 0.635 | 0.218 | 0.387 | 0.251 | 0.327 | 0.245 | 0.652 | 0.38 | 0.367 | 0.17 |  |  |  |  |
| NCI-H650 | 1.05 | 0.999 | 0.986 | 0.928 | 0.765 | 0.759 | 0.65 | 0.745 | 0.86 | 0.979 | 0.762 | 0.623 | 0.712 | 0.771 | 0.421 | 0.619 |  |  |  |  |
| NCI-H661 | 0.62 | 0.583 | 0.55 | 0.564 | 1 | 0.951 | 0.828 | 0.71 | 0.461 | 0.484 | 0.39 | 0.441 | 1.06 | 1.02 | 1.12 | 0.865 |  |  |  |  |
| NCI-H1395 | 1.05 | 1.06 | 0.52 | 0.925 | 0.641 | 0.634 | 0.471 | 0.555 | 0.673 | 0.562 | 0.461 | 0.533 |  |  |  |  | 1.23 | 1.06 | 0.531 | 0.837 |
| NCI-H1563 |  |  |  |  | 0.593 | 0.472 | 0.47 | 0.447 | 0.689 | 0.522 | 0.659 | 0.673 | 0.852 | 0.849 | 0.82 | 0.617 |  |  |  |  |
| NCI-H1793 | 0.404 | 0.403 | 0.526 | 0.344 | 0.153 | 0.137 | 0.168 | 0.182 | 0.399 | 0.333 | 0.333 | 0.257 |  |  |  |  | 0.575 | 0.362 | 0.39 | 0.272 |
| NCI-H2342 | 0.796 | 0.774 | 0.892 | 0.766 | 0.793 | 0.588 | 0.79 | 0.743 |  |  |  |  |  |  |  |  |  |  |  |  |
